{"source": "patent US6143910A", "about": "“Methods for preparation and use of 1α, 24(S) -dihydroxy vitamin D2” (priority 1998, dated 2000)", "key": {"[1]": {"test_system": "1,25-(OH)2 D3 receptor site", "conditions": "Ishizuka et al., Steroids 1981, 1982; cited from earlier work"}, "[2]": {"conditions": "human, in vivo; cited from earlier work"}, "[3]": {"assay": "Blood metabolite levels in osteoporotic women administered 1α-OH-D2", "format": "in vivo, human", "conditions": "one day after a single 2 μg dose of 1α-OH-D2", "procedure": "An increase in the production of 1α,24(S)-(OH)2 D2 relative to 1α,25-(OH)2 D2 has also been observed by the present inventors in human females who received 1α-OH-D2 as part of an investigation of that drug for the treatment of osteoporosis. Following either a single dose of 2 μg of 1α-OH-D2 or daily doses of 8 μg/day for one week, blood was collected and analyzed for the metabolites 1α,24(S)-(OH)2 D2 and 1α,25-(OH)2 D2. Lipid was extracted from the blood, and the metabolites were purified by HPLC using standard methods and quantified with the radioreceptor assay produced by Incstar (Stillwater, Minn.). One day after a single 2 μg dose, the level of 1α,24(S)-(OH)2 D2 was undetectable with the 1α,25-(OH)2 D2 level being approximately 11 pg/ml. In contrast, one day following the last dose of 8 μg, the level of 1α,24(S)-(OH)2 D2 averaged 9 pg/ml with the 1α,25-(OH)2 D2 level averaging 30 pg/ml."}, "[4]": {"format": "in vivo, rat", "procedure": "Vitamin D2 or 24-OH-D2 was administered (either oral or intraperitoneal supplementation) to vitamin D-deficient rats. Lipid extracts of the plasma were prepared and the metabolites purified by the method of Horst et al. (Horst, R. L., Koszewski, N. J. and Reinhardt, T. A., Biochem., 29:578-82 (1990)) described below for synthesyzing standard biological 1α,24-(OH)2 D2.\nStandard biological 1α,24-(OH)2 D2 was synthesized in vitro from 24-OH-D2 by incubating 10 μg of 24-OH-D2 in flask containing 5 ml of 20% kidney homogenates made from vitamin D-deficient chicks. The product of this reaction was isolated by HPLC and identified by mass spectrometry."}}, "note": "Read-outs that look alike come from different tables or passages of the source."}
{"smiles": "C=C1/C(=C\\C=C2/CCC[C@]3(C)[C@@H]([C@H](C)CC[C@@H](O)C(C)C)CC[C@@H]23)C[C@@H](O)C[C@@H]1O", "note": "[1α,24(R)-(OH)2 D3, 1α,24(R)-dihydroxyvitamin D3]", "values": [{"measurement": "Binding of the 1,25-(OH)2 D3 receptor site relative to 1,25-(OH)2 D3", "setting": "[1]", "value": "more tightly than does 1,25-(OH)2 D3 itself"}]}
{"smiles": "C=C1/C(=C\\C=C2/CCC[C@]3(C)[C@@H]([C@H](C)CCCC(C)C)CC[C@@H]23)C[C@@H](O)C[C@@H]1O", "note": "[1α-(OH)D3, 1α-hydroxy vitamin D3]", "values": [{"measurement": "Safety of dosage levels of 2.0 μg/day or greater", "setting": "[2]", "value": "not safely obtained"}]}
{"smiles": "C=C1/C(=C\\C=C2/CCC[C@]3(C)[C@@H]([C@H](C)/C=C/[C@H](C)C(C)C)CC[C@@H]23)C[C@@H](O)C[C@@H]1O", "note": "[1α-OH-D2, 1α-hydroxy vitamin D2]", "values": [{"measurement": "Blood level of metabolite 1α,24(S)-(OH)2 D2", "setting": "[3]", "value": "undetectable"}]}
{"smiles": "C=C1CC[C@H](O)C/C1=C/C=C1\\CCC[C@]2(C)[C@@H]([C@H](C)/C=C/C(C)(O)C(C)C)CC[C@@H]12", "note": "(stereo partly drawn) [24-OH-D2, 24-hydroxyvitamin D2]", "values": [{"measurement": "1α,24-(OH)2 D2 metabolite in plasma lipid extracts", "setting": "[4]; rat, in vivo", "value": "co-migrated on HPLC with the standard 1α,24-(OH)2 D2"}]}
{"smiles": "C=C1CC[C@H](O)C/C1=C/C=C1\\CCC[C@]2(C)[C@@H]([C@H](C)/C=C/[C@H](C)C(C)C)CC[C@@H]12", "note": "[vitamin D2]", "values": [{"measurement": "1α,24-(OH)2 D2 metabolite in plasma lipid extracts", "setting": "[4]; vitamin D-deficient rats, oral or intraperitoneal, HPLC", "value": "co-migrated on HPLC with the standard 1α,24-(OH)2 D2"}]}
{"smiles": "C=C1CC[C@H](O)C/C1=C/C=C1\\CCC[C@]2(C)[C@@H]([C@H](C)CCCC(C)C)CC[C@@H]12", "note": "[vitamin D3]", "values": [{"measurement": "24-OH-D3 in plasma", "setting": "[4]; comparable vitamin D-deficient rats", "value": "no detectable 24-OH-D3"}]}
